Laboratory results: ChEMBL document CHEMBL1157577

Target: T1, Progesterone receptor (Homo sapiens) (UniProt P06401)
T1 sequence (whole entry): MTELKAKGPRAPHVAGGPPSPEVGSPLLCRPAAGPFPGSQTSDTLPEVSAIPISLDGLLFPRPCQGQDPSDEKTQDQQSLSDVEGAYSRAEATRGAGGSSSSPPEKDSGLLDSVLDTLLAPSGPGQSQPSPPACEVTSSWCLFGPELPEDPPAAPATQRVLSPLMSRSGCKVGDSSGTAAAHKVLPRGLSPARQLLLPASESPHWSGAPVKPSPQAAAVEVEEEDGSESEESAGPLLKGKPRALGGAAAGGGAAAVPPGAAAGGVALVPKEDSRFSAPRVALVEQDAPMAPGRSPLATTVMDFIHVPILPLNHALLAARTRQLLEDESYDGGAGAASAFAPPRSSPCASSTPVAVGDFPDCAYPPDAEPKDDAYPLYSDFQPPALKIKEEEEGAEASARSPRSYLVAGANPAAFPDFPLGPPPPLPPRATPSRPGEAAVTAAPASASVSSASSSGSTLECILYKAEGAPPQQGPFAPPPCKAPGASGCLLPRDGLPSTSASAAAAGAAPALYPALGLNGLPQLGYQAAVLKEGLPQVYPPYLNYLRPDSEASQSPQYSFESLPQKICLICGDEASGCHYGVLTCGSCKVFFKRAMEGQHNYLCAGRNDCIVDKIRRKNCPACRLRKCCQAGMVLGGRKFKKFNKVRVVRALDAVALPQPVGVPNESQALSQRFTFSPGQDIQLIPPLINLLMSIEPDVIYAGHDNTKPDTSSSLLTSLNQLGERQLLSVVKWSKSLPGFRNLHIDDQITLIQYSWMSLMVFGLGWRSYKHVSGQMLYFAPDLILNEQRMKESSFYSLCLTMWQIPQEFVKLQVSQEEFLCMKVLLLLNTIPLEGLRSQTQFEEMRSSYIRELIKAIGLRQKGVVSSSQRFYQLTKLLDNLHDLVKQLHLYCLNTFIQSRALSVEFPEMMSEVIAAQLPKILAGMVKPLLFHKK
Test: Antiprogestagenic activity at progesterone receptor in human T47D cells assessed as inhibition of progesterone-induced alkaline phosphatase activity relative to mifepristone
Assay type: cell-based
Parameters: scale not given: the % may be the effect or the level left

| Activity [%] | SMILES |
| --- | --- |
| 0.15 | CC#C[C@]1(O)CC[C@H]2[C@@H]3CCC4=CC(=O)CCC4=C3[C@@H](c3ccc(N(C)CCC(=O)O)cc3)C[C@@]21C |
| 0.11 | CC#C[C@]1(O)CC[C@H]2[C@@H]3CCC4=CC(=O)CCC4=C3[C@@H](c3ccc(N(C)CCCCCC(=O)O)cc3)C[C@@]21C |
